Measured values taken from publication PMC8662559, “The Effects of a Novel Non-catechol Dopamine Partial Agonist on Working Memory in the Aged Rhesus Monkey” (Frontiers in Aging Neuroscience, 2021).

How the values were obtained:
[1] = target: T1, non-human primate D1 receptor (Macaca fascicularis, UniProt G7P6Y1); experiment: radioligand competition binding; type: biochemical; conditions: 1.0 nM [3H]-SCH23390, striatal membranes, 4 mM MgSO4, 0.5 mM EDTA, pH 7.4, 37 °C; Cheng-Prusoff
T1 construct: native receptor in striatal membrane homogenate
T1 sequence (G7P6Y1 1-446): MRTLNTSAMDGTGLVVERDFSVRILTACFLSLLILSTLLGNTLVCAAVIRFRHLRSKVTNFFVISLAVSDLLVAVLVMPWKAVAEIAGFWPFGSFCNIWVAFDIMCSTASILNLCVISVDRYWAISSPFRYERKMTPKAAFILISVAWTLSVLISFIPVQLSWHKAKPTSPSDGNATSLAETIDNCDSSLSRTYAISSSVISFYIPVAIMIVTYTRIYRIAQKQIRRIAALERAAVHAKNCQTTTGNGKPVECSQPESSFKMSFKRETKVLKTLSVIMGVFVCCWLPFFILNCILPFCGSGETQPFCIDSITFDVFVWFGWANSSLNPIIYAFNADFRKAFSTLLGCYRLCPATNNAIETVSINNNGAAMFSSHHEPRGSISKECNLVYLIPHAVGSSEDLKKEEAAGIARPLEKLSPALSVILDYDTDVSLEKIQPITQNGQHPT

[2] = target: T2, human D1 receptor (Homo sapiens, UniProt P21728); experiment: binding assay (method of Gray et al., […]); type: cell-based
T2 construct: gene DRD1; human D1
T2 sequence (P21728 whole entry): as the sequence (G7P6Y1 1-446) above, with I311N counted along it

[3] = target: T2, human D1 receptor; experiment: cAMP functional assay (method of Gray et al., […]); type: cell-based; conditions: partial agonist

Ki [1]: 0.014 µM
Ki [2]: 0.017 µM
EC50 [3]: 0.036 µM
Substance: PF-6294
